Test results published in publication PMC4374918, “Interaction of ATP with a Small Heat Shock Protein from Mycobacterium leprae: Effect on Its Structure and Function” (PLoS Neglected Tropical Diseases, 2015).

What was measured:
HSP18 [1] = target: T1, HSP18 (Mycobacterium leprae, UniProt P12809); experiment: SPR (Biacore T200, HSP18 immobilized on CM5 chip); also TNP-ATP displacement and thermal stabilization; assay type: binding
T1 construct: recombinant wild-type M. leprae HSP18

HSP18 [2] = target: T1, HSP18; experiment: SPR (Biacore T200, HSP18 immobilized on CM5 chip); assay type: binding
HSP18 [3] = target: T1, HSP18; experiment: fluorescence titration, Scatchard analysis; assay type: binding
[4] = target: the molecule itself; experiment: dynamic light scattering; HSP18 0.5 mg/ml in 50 mM phosphate buffer pH 7.5, 25°C, with or without 1 mM ATP; hydrodynamic radius of the oligomers

For Nc1ncnc2c1ncn2[C@@H]1O[C@H](COP(=O)(O)OP(=O)(O)OP(=O)(O)O)[C@@H](O)[C@H]1O [ATP], the Kd (HSP18 [1]) was 590 nM.

Nc1ncnc2c1ncn2[C@@H]1O[C@H](CO[P@](=O)(O)O[P@](=O)(O)O[P@@](=O)(O)S)[C@@H](O)[C@H]1O [ATP-γS] gave a Kd (HSP18 [2]) of 330 nM.

Nc1ncnc2c1ncn2[C@@H]1O[C@H](COP(=O)(O)OP(=O)(O)OP(=O)(O)O)[C@H]2OC3(O[C@H]21)C([N+](=O)[O-])=CC(=[N+]([O-])[O-])C=C3[N+](=O)[O-] (stereo partly shown) [TNP-ATP] showed a Kd (HSP18 [3]) of 730 nM.

B1: Mycobacterium leprae HSP18 (18 kDa antigen, small heat shock protein) (natural protein, UniProt P12809 1-148, looked up)
chain: MLMRTDPFRELDRFAEQVLGTSARPAVMPMDAWREGEEFVVEFDLPGIKADSLDIDIERNVVTVRAERPGVDPDREMLAAERPRGVFNRQLVLGENLDTERILASYQEGVLKLSIPVAERAKPRKISVDRGNNGHQTINKTAHEIIDA
notes: M. leprae HSP18 (18 kDa antigen), wild-type; source: recombinant wild-type, expressed and purified as described previously [5]; copies: 29
B1: binds [4].
